Laboratory results from ChEMBL document CHEMBL5370621, “Design, Synthesis, and Biological Evaluation of Novel Thioureidobenzamide (TBA) Derivatives as HBV Capsid Assembly Modulators” (J Med Chem, 2023).
Each block holds one molecule with its values, some of them ahead of it. Activity calls are given as the source filed them. The rule behind the calls is not given here.

How the values were obtained:
[1] = Selectivity index, ratio of CC50 for cytotoxicity against human HePAD38 cells to EC50 for antiviral activity against Hepatitis B virus infected in human HePAD38 cells; type: toxicity, cell-based; conditions: read-out: Ratio CC50/EC50
[2] = system: Hepatitis B virus; assay: Antiviral activity against Hepatitis B virus infected in human HePAD38 cells assessed as inhibition of viral DNA replication by qPCR analysis; type: functional, organism-based
[3] = Cytotoxicity against human HePAD38 cells assessed as reduction in cell viability incubated for 72 hrs by CCK8 assay; type: toxicity, cell-based
[4] = target: Core antigen (Hepatitis B virus, UniProt Q03732); assay: Inhibition of fluorescent-labeled capsid assembly in Hepatitis B virus incubated for 1 hr by fluorescence based analysis
Sequence of Core antigen (Q03732 whole entry): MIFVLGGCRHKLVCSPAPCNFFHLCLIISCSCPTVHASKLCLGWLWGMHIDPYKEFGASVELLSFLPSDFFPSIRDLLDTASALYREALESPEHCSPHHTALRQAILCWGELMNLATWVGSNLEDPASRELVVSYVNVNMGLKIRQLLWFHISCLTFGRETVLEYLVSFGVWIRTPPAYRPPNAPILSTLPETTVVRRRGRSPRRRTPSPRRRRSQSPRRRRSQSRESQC

[5] = Half life in human liver microsomes at 100 uM preincubated for 10 mins followed by incubation with NADPH regenerating system for 30 mins by LC-MS/MS analysis; type: ADME, Microsome; conditions: time 40 min
[6] = Intrinsic clearance in human liver microsomes at 100 uM preincubated for 10 mins followed by incubation with NADPH regenerating system for 30 mins and measured per mg protein by LC-MS/MS analysis; type: ADME, Microsome; conditions: time 40 min, read-out: CLH
[7] = Metabolic stability of the compound in human liver microsomes assessed as parent compound remaining at 100 uM incubated for 60 mins in presence of NADPH by LC-MS/MS analysis; type: ADME, Microsome; conditions: read-out: Stability
[8] = Metabolic stability of the compound in human liver microsomes assessed as parent compound remaining at 100 uM incubated for 60 mins in absence of NADPH by LC-MS/MS analysis; type: ADME, Microsome; conditions: read-out: Stability
[9] = Half life in human plasma at 100 uM by LC-MS/MS analysis; type: ADME, cell-free
[10] = Half life in Sprague-Dawley rat at 2 mg/kg, iv by LC-MS/MS analysis; type: ADME, organism-based; conditions: in vivo
[11] = Cmax in Sprague-Dawley rat at 2 mg/kg, iv by LC-MS/MS analysis; type: ADME, organism-based; design: dose 2 mg/kg, route iv; conditions: in vivo
[12] = AUC(0 to t) in Sprague-Dawley rat at 2 mg/kg, iv by LC-MS/MS analysis; type: ADME, organism-based; design: dose 2 mg/kg, route iv; conditions: in vivo
[13] = AUC(0 to infinity) in Sprague-Dawley rat at 2 mg/kg, iv by LC-MS/MS analysis; type: ADME, organism-based; design: dose 2 mg/kg, route iv; conditions: in vivo
[14] = Volume of distribution at steady state in Sprague-Dawley rat at 2 mg/kg, iv by LC-MS/MS analysis; type: ADME, organism-based; conditions: in vivo
[15] = MRT(0 to t) in Sprague-Dawley rat at 2 mg/kg, iv by LC-MS/MS analysis; type: ADME, organism-based; conditions: in vivo
[16] = Half life in Sprague-Dawley rat at 20 mg/kg, po by LC-MS/MS analysis; type: ADME, organism-based; conditions: in vivo
[17] = Tmax in Sprague-Dawley rat at 20 mg/kg, po by LC-MS/MS analysis; type: ADME, organism-based; conditions: in vivo
[18] = Cmax in Sprague-Dawley rat at 20 mg/kg, po by LC-MS/MS analysis; type: ADME, organism-based; design: dose 20 mg/kg, route po; conditions: in vivo
[19] = AUC(0 to t) in Sprague-Dawley rat at 20 mg/kg, po by LC-MS/MS analysis; type: ADME, organism-based; design: dose 20 mg/kg, route po; conditions: in vivo
[20] = AUC(0 to infinity) in Sprague-Dawley rat at 20 mg/kg, po by LC-MS/MS analysis; type: ADME, organism-based; design: dose 20 mg/kg, route po; conditions: in vivo
[21] = MRT(0 to t) in Sprague-Dawley rat at 20 mg/kg, po by LC-MS/MS analysis; type: ADME, organism-based; conditions: in vivo
[22] = MRT(0 to infinity) in Sprague-Dawley rat at 20 mg/kg, po by LC-MS/MS analysis; type: ADME, organism-based; conditions: in vivo
[23] = Oral bioavailability in Sprague-Dawley rat at 20 mg/kg by LC-MS/MS analysis; type: ADME, organism-based; conditions: in vivo
[24] = Cytotoxicity against human HLCZ01 cells assessed as reduction in cell viability upto 30 uM incubated for 72 hrs by CCK8 assay; type: toxicity, cell-based; conditions: hlcz01, 72 h
[25] = system: Hepatitis B virus; assay: Antiviral activity against Hepatitis B virus infected in human HLCZ01 cells assessed as inhibition of HBV virion production by measuring inhibition of viral DNA replication incubated for 6 days by qPCR analysis; type: functional, organism-based
[26] = system: Hepatitis B virus; assay: Antiviral activity against Hepatitis B virus infected in human HLCZ01 cells assessed as reduction in HBsAg level at 0.03 to 3 uM incubated for 6 days by ELISA; type: functional, organism-based; conditions: dose 0.03-3 µM, time 6.0 day
[27] = system: Hepatitis B virus; assay: Antiviral activity against Hepatitis B virus infected in C57BL/6J mouse assessed as inhibition of viral DNA level in serum at 25 mg/kg/day, po for 18 days by qPCR analysis; type: functional, organism-based; conditions: time 18.0 day
[28] = system: Hepatitis B virus; assay: Antiviral activity against Hepatitis B virus infected in C57BL/6J mouse assessed as reduction in HBcAg expression […] at 25 mg/kg/day, po for 18 days by immunohistochemistry; type: functional, organism-based; conditions: time 18.0 day
[29] = system: Hepatitis B virus; assay: Antiviral activity against Hepatitis B virus infected in C57BL/6J mouse assessed as reduction in HBsAg level in serum at 25 mg/kg/day, po for 18 days by ELISA; type: functional, organism-based; conditions: time 18.0 day
[30] = Hepatotoxicity in C57BL/6J mouse infected with Hepatitis B virus assessed as serum ALT level at 25 mg/kg/day, po for 18 days by colorimetry; type: toxicity, organism-based; conditions: in vivo, 432 h, time 18 day
[31] = Hepatotoxicity in C57BL/6J mouse infected with Hepatitis B virus assessed as serum AST level at 25 mg/kg/day, po for 18 days by colorimetry; type: toxicity, organism-based; conditions: in vivo, 432 h, time 18 day

SMILES: Cc1cc(NC(=O)c2cc(NC(=S)NC(C)C)c(F)cc2Br)ccc1F
selectivity ratio [1]: > 714 | EC50 [2]: 0.14 µM | CC50 at 72 h [3]: > 100 µM | IC50 [4]: 0.94 µM

SMILES: CCOC(=O)C1=C(CN2CCOCC2)NC(c2nccs2)=N[C@H]1c1ccc(C)cc1Br
selectivity ratio [1]: > 5920 | EC50 [2]: 0.017 µM | CC50 at 72 h [3]: > 100 µM | IC50 [4]: 0.86 µM

SMILES: C=CCNC(=S)Nc1cc(C(=O)Nc2ccc(F)c(C)c2)c(C)cc1F
selectivity ratio [1]: 2210 | EC50 [2]: 0.012 µM | CC50 at 72 h [3]: 26.6 µM | IC50 [4]: 0.88 µM | half-life at 100 µM [5]: 0.635 h | microsomal CLint at 100 µM [6]: 36.4 µL/min/mg | remaining at 1 h, 100 µM [7]: 31.2% | remaining at 1 h, 100 µM [8]: 72.6% | half-life at 100 µM [9]: 0.9 h | half-life [10]: 0.98 h | Cmax [11]: 5390 ng/mL | AUC(0-t) [12]: 3260 ng·h/mL | AUC(0-inf) [13]: 3260 ng·h/mL | Vdss [14]: 0.51 L/kg | MRT last [15]: 0.82 h | half-life [16]: 1.67 h | Tmax [17]: 1.83 h | Cmax [18]: 4770 ng/mL | AUC(0-t) [19]: 22000 ng·h/mL | AUC(0-inf) [20]: 22000 ng·h/mL | MRT last [21]: 3.16 h | MRT inf [22]: 3.26 h | bioavailability [23]: 67.7% | Activity [24]: Non-Toxic | EC50 ([25]; HLCZ01, 144 h): 0.033 µM | Activity ([25]; time 6.0 day): Dose-Dependent Effect | Activity [26]: inactive | Activity [27]: Active | Activity [28]: Active | Activity [29]: inactive | Activity [30]: Non-Toxic | Activity [31]: Non-Toxic

EC50 [2]: 0.94 µM
SMILES: O=C(Nc1ccc(F)c(Cl)c1)c1cc(S(=O)(=O)N[C@H]2CCOC2)c(F)cc1Br
selectivity ratio [1]: 21.9 | CC50 at 72 h [3]: 20.6 µM

EC50 [2]: 2.33 µM
SMILES: Cc1cc(NC(=O)c2cc(NC(=O)NCc3ccc(C(C)(C)C)cc3)c(F)cc2Br)ccc1F
selectivity ratio [1]: > 42.9 | CC50 at 72 h [3]: > 100 µM

EC50 [2]: 0.72 µM
SMILES: Cc1cc(NC(=O)c2cc(NC(=O)NCc3cc(F)c(F)c(F)c3)c(F)cc2Br)ccc1F
selectivity ratio [1]: 5.13 | CC50 at 72 h [3]: 3.69 µM

EC50 [2]: 0.94 µM
SMILES: O=C(Nc1ccc(F)c(F)c1)c1cc(S(=O)(=O)N[C@H]2CCOC2)c(F)cc1Br
selectivity ratio [1]: 67.8 | CC50 at 72 h [3]: 63.7 µM

EC50 [2]: 0.01 µM
SMILES: Cc1cc(NC(=O)c2cc(NC(=S)NCc3ccc(B(O)O)cc3)c(F)cc2C)ccc1F
selectivity ratio [1]: 595 | CC50 at 72 h [3]: 5.95 µM

EC50 [2]: 0.83 µM
SMILES: Cc1cc(NC(=O)c2cc(NC(=O)c3cc(F)c(F)c(F)c3)c(F)cc2Br)ccc1F
selectivity ratio [1]: 21.8 | CC50 at 72 h [3]: 18.1 µM

EC50 [2]: 0.46 µM
SMILES: Cc1cc(NC(=O)c2cc(NC(=O)c3ccc(F)cc3)c(F)cc2Br)ccc1F
selectivity ratio [1]: 2.59 | CC50 at 72 h [3]: 1.19 µM

EC50 [2]: 0.2 µM
SMILES: Cc1cc(NC(=O)c2cc(NC(=O)C(=O)NC(C)C)c(F)cc2Br)ccc1F
selectivity ratio [1]: > 496 | CC50 at 72 h [3]: > 100 µM

EC50 [2]: 0.18 µM
SMILES: CCNC(=S)Nc1cc(C(=O)Nc2ccc(F)c(C)c2)c(Br)cc1F
selectivity ratio [1]: 242 | CC50 at 72 h [3]: 43.6 µM

microsomal CLint at 100 µM [6]: 257 µL/min/mg
SMILES: O=C(O)Cc1ccccc1Nc1c(Cl)cccc1Cl [DICLOFENAC]

EC50 [2]: 0.52 µM
SMILES: Cc1ccc(C(=O)Nc2cc(C(=O)Nc3ccc(F)c(C)c3)c(Br)cc2F)cc1
selectivity ratio [1]: 40.1 | CC50 at 72 h [3]: 20.9 µM

EC50 [2]: 2.22 µM
SMILES: C=CC(=O)Nc1cc(C(=O)Nc2ccc(F)c(C)c2)c(Br)cc1F
selectivity ratio [1]: 3.59 | CC50 at 72 h [3]: 7.98 µM

SMILES: O=C(Nc1cc(F)c(F)c(F)c1)c1ccc(F)c(S(=O)(=O)N2CCC(O)CC2)c1
selectivity ratio [1]: 47.6 | EC50 [2]: 0.35 µM | CC50 at 72 h [3]: 16.7 µM | IC50 [4]: 1.53 µM

EC50 [2]: 0.14 µM
SMILES: C=CCNC(=S)Nc1cc(C(=O)Nc2ccc(F)c(C)c2)c(Br)cc1F
selectivity ratio [1]: 358 | CC50 at 72 h [3]: 50.1 µM

EC50 [2]: 0.67 µM
SMILES: Cc1cc(NC(=O)c2cc(NC(=O)C(=O)NC3CC3)c(F)cc2Br)ccc1F
selectivity ratio [1]: 25.3 | CC50 at 72 h [3]: 17 µM

EC50 [2]: 5.21 µM
SMILES: Cc1cc(NC(=O)c2cc(NC(=O)Nc3ccc(C(F)(F)F)cc3)c(F)cc2Br)ccc1F
selectivity ratio [1]: 0.67 | CC50 at 72 h [3]: 3.5 µM
